Source: patent EP4707275A1, “NOVEL COMPOUND COMPRISING N-METHYLPIPERAZINE ETHANOL CARBAMATE STRUCTURE AND USE THEREOF” (Korea Institute of Radiological & Medical Sciences, priority 2023, dated 2024)

Assays:
[1] = test system: radiation-induced pulmonary fibrosis; test: Inhibitory effect on radiation-induced pulmonary fibrosis in mice (Micro-CT, H&E and Masson's Trichrome staining); assay type: in vivo, C57BL/6 mice; conditions: 2 weeks after radiation exposure (SBRT 90 Gy), oral, nintedanib 60 mg/kg once daily, vs untreated group
Method: One hour before stereotactic body radiation therapy (SBRT; 90 Gy, 4 mm collimator), DCTP and nintedanib, an FDA-approved drug known to inhibit pulmonary fibrosis, were orally administered to seven-week-old male C57BL/6 mice. The degree of pulmonary fibrosis and the inhibitory effect on radiation-induced lung injury were observed two weeks after radiation exposure. The DCTP drug was administered at a dose of 30 mg/kg, and nintedanib was administered once daily (o.d.) at a dose of 60 mg/kg. In addition, to analyze the degree of inflammatory response and the degree of fibrosis two weeks after radiation exposure, H&E staining and Masson's Trichrome staining were performed, and the results are shown in FIG. 5. One hour prior to stereotactic body radiation therapy (SBRT; 90 Gy, 4 mm collimator), PXDP and nintedanib, an FDA-approved drug known to inhibit pulmonary fibrosis, were orally administered to seven-week-old male C57BL/6 mice. The degree of pulmonary fibrosis and the inhibitory effect on radiation-induced lung injury were observed two weeks after radiation exposure. The PXDP drug was administered at a dose of 100 mg/kg, and nintedanib was administered once daily (o.d.) at a dose of 60 mg/kg. To analyze the degree of inflammatory response and the degree of fibrosis 2 weeks after radiation exposure, H&E staining and Masson's Trichrome staining were performed, and the results are shown in FIG. 11.

[2] = test system: idiopathic pulmonary fibrosis induced by bleomycin; test: Inhibitory effect on idiopathic pulmonary fibrosis induced by bleomycin in mice (Micro-CT, H&E and Masson's Trichrome staining, survival); assay type: in vivo, C57BL/6 mice; conditions: oral once daily for two weeks from day 14, nintedanib 60 mg/kg, vs untreated group; for degree of fibrosis (Micro-CT imaging): 4 weeks after bleomycin 1.5 U/kg; for degree of inflammation and fibrosis (H&E and Masson's Trichrome staining) / survival rate: bleomycin 1.5 U/kg; for survival rate: Example 5, FIG. 9
Method: Each drug was administered starting 14 days after the administration of bleomycin. The drug was orally administered at a dose of 20 mg/kg once daily for two weeks (a total of 13 administrations). The control drug, nintedanib, was administered at a dose of 60 mg/kg, and the co-administration group was orally administered nintedanib (60 mg/kg) together with DCTP (20 mg/kg) once daily for two weeks (a total of 13 administrations).
The results of H&E and Masson's Trichrome staining performed to evaluate the degree of inflammation and fibrosis are shown in FIG. 3.
Each drug was administered starting 14 days after the administration of bleomycin. Nintedanib and PXDP were each orally administered at a dose of 60 mg/kg once daily for two weeks (a total of 13 administrations), and the group treated with the combination was orally administered nintedanib (60 mg/kg) together with PXDP (60 mg/kg) once daily for two weeks (a total of 13 administrations).
The results of H&E and Masson's Trichrome staining performed to evaluate the degree of inflammation and fibrosis are shown in FIG. 8.
In addition, the mouse survival rate was compared in FIG. 9.

[3] = Example 3, FIG. 5, DCTP 30 mg/kg
[4] = Example 5, FIG. 7, PXDP 60 mg/kg
[5] = Example 5, FIG. 8, PXDP 60 mg/kg
[6] = Example 6, FIG. 10, PXDP 100 mg/kg
[7] = Example 6, FIG. 11, PXDP 100 mg/kg

Row | SMILES | degree of inflammation and degree of fibrosis (H&E and Masson's Trichrome staining) [1, 3] | degree of fibrosis (Micro-CT imaging) [2, 4] | degree of inflammation and fibrosis (H&E and Masson's Trichrome staining) [2, 5] | survival rate ([2]; PXDP 60 mg/kg) | degree of fibrosis (Micro-CT imaging) [1, 6] | degree of fibrosis (Micro-CT imaging) ([1]; Example 6, FIG. 10, PXDP 100 mg/kg, listed as PXPD) | degree of inflammation and degree of fibrosis (H&E and Masson's Trichrome staining) [1, 7] | degree of fibrosis (Micro-CT imaging) ([2]; Example 2, FIG. 2, DCTP 20 mg/kg) | degree of inflammation and fibrosis (H&E and Masson's Trichrome staining) ([2]; Example 2, FIG. 3, DCTP 20 mg/kg) | degree of fibrosis (Micro-CT imaging) ([1]; Example 3, FIG. 4, DCTP 30 mg/kg)
1 | COc1cc2ncnc(N(C(=O)OCCN3CCN(C)CC3)c3ccc(F)c(Cl)c3)c2cc1NC(=O)/C=C/CN1CCCCC1 [DCTP, 2-(4-methylpiperazin-1-yl)ethyl (E)-(3-chloro-4-fluorophenyl)(7-methoxy-6-(4-(piperidin-1-yl)but-2-enamido)quinazolin-4-yl)carbamate] | reduction in fibrosis and inflammation in the lungs |  |  |  |  |  |  |  |  | 
2 | CN1CCN(CCOC(=O)N(Cc2ccc(C(F)(F)F)nc2)c2ccc(Cc3c[nH]c4ncc(Cl)cc34)cn2)CC1 [PXDP, 2-(4-methylpiperazin-1-yl)ethyl (5-((5-chloro-1H-pyrrolo[2,3-b]pyridin-3-yl)methyl)pyridin-2-yl)((6-(trifluoromethyl)pyridin-3-yl)methyl)carbamate] |  | reduction in the degree of fibrosis | alleviation of pulmonary fibrosis and inflammation | survival rate increased | reduction in the degree of fibrosis | superior to that of nintedanib | alleviation of fibrosis and inflammation in the lungs |  |  | 
3 | COC(=O)c1ccc2c(c1)NC(=O)/C2=C(\Nc1ccc(N(C)C(=O)CN2CCN(C)CC2)cc1)c1ccccc1 [nintedanib] | reduction in fibrosis and inflammation in the lungs | reduction in the degree of fibrosis | alleviation of pulmonary fibrosis and inflammation | survival rate increased | reduction in the degree of fibrosis |  | alleviation of fibrosis and inflammation in the lungs | reduction in the degree of fibrosis | alleviation of pulmonary fibrosis and inflammation | reduction in the degree of fibrosis
